Measured values from US20110269788A1, “SPIRO-OXINDOLE-DERIVATIVES AS SODIUM CHANNEL BLOCKERS” (Xenon Pharmaceuticals Inc., priority 2008, published 2011).

Columns and labels:
sodium channel = format: cell-based, human or rat; settings: known cell line that expresses a sodium channel
CYP3A4 = target: T1, CYP3A4 (Homo sapiens, UniProt P08684); assay: Cytochrome P450 (CYP450) inhibition assay, Vivid fluorescence, CYP3A4; format: in vitro ADME; settings: P450 Baculosomes (CYP3A4), probe Vivid substrate (fluorogenic, not named)
T1 construct: purchased Invitrogen Corporation Vivid CYP450 Screening Kit (catalogue number not given)
T1 sequence (P08684 whole entry): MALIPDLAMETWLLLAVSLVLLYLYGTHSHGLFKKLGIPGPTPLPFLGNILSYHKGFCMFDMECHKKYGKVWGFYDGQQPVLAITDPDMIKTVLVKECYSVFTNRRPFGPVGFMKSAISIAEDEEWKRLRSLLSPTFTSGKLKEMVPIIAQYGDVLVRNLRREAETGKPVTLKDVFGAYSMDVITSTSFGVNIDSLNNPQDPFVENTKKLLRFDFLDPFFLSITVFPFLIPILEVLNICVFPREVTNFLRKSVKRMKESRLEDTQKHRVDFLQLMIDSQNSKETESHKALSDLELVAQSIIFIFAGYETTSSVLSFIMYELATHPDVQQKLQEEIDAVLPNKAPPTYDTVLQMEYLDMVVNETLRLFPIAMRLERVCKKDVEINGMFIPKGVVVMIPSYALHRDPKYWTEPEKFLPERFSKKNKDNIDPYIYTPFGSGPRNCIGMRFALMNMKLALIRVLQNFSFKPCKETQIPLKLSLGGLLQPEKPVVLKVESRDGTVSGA

CYP2C19 = CYP2C19 (Homo sapiens, UniProt P33261); assay: in vitro
CYP2C19, sequence (P33261 whole entry, canonical isoform): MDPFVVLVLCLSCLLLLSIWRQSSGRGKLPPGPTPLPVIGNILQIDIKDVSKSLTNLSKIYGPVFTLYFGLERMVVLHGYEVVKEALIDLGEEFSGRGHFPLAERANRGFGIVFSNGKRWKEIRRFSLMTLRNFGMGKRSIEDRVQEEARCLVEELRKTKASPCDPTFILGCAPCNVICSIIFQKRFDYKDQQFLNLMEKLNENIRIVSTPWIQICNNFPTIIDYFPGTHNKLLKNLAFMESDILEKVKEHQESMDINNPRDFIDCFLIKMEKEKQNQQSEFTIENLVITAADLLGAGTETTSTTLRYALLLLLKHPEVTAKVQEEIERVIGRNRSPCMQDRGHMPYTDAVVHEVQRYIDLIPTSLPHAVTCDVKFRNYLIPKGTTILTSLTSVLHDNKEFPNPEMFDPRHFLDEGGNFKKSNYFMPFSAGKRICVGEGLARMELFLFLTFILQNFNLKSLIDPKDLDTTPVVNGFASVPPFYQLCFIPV
Description: (§1) CYP450 (CYP) is a designation for a superfamily of enzymes. Each family consists of one or more subfamilies and each subfamily contains one or more specific CYP isoforms. The Cytochrome P450 (CYP450) Inhibition Assay is a fluorescence-based assay using a cytochrome CYP isozyme for screening of compounds of the invention to determine the level of CYP inhibition by a specific compound. The assay is based on the CYP inhibition kit described by Vivid CYP450 Screening Kit Protocol, 2005, Invitrogen Corporation (Invitrogen Corporation, 1600 Faraday Avenue, Carlsbad, Calif. 92008, USA).
(§2) This assay is designed to assess compounds by quantifying the inhibition of the predominant human CYP isozymes involved in hepatic drug metabolism. […] The standard method for evaluating specific CYP isozyme inhibition is to determine the conversion rate of a probe substrate into its metabolite, in the presence and absence of the potential inhibitor. Quantification of the metabolite is achieved by HPLC or by using a probe substrate (Table 3) that is metabolized into a fluorescent product (fluorescent assay).
(§3) This assay can be used for single concentration screening or for IC50 determination. In a single concentration screening assay, the final assay concentration of the test compound is 10 μM. In an IC50 determination assay, IC50 may be determined using a 3, 6, or 12 point curve in triplicate with a chosen starting concentration diluted serially.
(§4) In the Preparation Stage, the test compounds, controls (acetonitrile (ACN) or Dimethyl sulfoxide (DMSO) and No Baculosomes), and known inhibitors (Table 4) were diluted to 10% ACN or DMSO in water at appropriate concentrations.

CYP2D6 = CYP2D6 (Homo sapiens, UniProt P10635); assay: in vitro
CYP2D6, sequence (P10635 whole entry): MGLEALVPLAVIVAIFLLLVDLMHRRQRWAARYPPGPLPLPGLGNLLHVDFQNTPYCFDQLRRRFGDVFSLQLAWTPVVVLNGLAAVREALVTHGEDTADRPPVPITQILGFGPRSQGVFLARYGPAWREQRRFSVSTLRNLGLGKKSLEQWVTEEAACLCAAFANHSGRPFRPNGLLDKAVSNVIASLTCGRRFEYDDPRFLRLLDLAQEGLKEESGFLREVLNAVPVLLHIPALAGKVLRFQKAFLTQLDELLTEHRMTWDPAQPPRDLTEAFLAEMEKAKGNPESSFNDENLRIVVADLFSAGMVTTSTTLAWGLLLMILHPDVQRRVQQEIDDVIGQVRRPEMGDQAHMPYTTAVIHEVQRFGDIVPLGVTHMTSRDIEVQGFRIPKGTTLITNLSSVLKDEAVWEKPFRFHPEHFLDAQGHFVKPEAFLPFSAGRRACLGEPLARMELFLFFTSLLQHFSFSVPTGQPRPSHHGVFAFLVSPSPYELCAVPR
Description: as §1, §2, §3, §4

CYP2C9 = CYP2C9 (Homo sapiens, UniProt P11712); assay: in vitro
CYP2C9, sequence (P11712 whole entry): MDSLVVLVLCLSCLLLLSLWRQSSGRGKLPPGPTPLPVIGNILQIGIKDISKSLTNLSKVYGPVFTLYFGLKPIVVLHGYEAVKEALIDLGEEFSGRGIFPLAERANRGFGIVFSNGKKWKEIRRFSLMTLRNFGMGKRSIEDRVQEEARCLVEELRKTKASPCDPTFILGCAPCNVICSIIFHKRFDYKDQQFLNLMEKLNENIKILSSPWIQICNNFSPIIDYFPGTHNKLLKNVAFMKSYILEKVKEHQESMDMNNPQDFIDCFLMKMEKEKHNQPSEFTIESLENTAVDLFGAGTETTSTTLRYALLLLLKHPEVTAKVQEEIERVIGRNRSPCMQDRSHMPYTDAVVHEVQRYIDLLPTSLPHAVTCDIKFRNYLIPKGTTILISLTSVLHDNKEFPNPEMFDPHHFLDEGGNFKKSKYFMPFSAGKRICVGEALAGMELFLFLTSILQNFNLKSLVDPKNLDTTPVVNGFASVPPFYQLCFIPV
Description: as §1, §2, §3, §4

CHO-K1 (NaV1.4) = format: cell-based, Chinese Hamster
L6 (Nav1.4 and 1.5) = format: cell-based, rat
[1] = tested on: SH-SY5Y (NaV1.9 and NaV1.7); format: cell-based, Human
SK-N-BE2C (NaV1.8) = SK-N-BE2C (NaV1.8) (Homo sapiens, UniProt Q9Y5Y9); format: cell-based
PC12 (Nav1.2) = PC12 (Nav1.2) (Rattus norvegicus, UniProt P04775)
PC12 (Nav1.2), sequence (P04775 whole entry, looked up): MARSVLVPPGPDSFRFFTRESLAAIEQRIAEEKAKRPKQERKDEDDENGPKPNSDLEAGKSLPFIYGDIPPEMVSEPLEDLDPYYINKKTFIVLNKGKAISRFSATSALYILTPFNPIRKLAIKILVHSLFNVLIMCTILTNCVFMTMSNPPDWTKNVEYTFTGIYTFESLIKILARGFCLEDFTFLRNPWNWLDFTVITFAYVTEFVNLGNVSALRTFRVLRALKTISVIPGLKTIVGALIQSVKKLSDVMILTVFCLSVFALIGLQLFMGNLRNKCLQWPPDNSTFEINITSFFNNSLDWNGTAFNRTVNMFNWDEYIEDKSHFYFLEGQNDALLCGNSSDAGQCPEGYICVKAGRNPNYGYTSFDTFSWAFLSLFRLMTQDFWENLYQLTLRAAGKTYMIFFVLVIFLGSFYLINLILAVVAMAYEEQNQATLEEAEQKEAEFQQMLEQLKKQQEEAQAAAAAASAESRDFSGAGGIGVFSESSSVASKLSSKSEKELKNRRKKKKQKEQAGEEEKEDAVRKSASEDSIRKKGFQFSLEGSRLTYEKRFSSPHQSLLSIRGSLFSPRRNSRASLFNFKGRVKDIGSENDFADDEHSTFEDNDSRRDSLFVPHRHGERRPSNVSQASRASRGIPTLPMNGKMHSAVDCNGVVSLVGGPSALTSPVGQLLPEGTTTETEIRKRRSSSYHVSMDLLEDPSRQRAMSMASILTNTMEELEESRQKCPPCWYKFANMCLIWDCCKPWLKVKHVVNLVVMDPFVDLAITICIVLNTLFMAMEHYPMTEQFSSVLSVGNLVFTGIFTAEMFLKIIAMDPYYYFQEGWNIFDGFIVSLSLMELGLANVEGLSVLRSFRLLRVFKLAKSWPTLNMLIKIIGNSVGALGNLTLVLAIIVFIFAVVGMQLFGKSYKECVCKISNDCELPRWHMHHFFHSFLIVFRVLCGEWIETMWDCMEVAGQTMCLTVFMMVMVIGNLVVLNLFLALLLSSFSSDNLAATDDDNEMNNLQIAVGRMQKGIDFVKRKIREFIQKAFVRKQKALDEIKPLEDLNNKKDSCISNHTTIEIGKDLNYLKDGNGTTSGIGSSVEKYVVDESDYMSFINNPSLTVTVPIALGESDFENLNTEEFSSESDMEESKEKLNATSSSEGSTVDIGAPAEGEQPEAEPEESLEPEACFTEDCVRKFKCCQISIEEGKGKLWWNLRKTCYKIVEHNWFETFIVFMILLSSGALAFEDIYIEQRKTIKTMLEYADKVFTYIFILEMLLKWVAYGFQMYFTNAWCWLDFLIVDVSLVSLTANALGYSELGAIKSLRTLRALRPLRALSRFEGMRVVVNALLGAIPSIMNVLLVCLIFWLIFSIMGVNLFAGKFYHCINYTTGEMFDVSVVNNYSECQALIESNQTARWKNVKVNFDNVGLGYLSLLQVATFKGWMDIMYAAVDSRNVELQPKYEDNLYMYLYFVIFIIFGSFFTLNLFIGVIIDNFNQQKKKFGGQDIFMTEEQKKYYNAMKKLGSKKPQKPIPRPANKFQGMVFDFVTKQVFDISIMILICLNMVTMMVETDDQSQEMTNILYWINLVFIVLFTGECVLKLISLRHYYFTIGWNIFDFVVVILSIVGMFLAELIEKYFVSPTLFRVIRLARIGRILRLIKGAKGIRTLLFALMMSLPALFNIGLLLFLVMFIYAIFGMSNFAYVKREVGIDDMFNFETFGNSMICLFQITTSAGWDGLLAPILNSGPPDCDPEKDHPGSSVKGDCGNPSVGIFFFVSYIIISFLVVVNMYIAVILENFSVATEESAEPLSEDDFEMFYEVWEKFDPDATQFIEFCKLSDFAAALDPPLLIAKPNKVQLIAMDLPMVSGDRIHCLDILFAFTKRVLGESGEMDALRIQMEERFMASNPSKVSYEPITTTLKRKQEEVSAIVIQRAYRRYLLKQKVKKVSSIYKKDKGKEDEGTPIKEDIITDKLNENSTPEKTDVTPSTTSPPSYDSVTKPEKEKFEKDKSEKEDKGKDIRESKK

Row | Compound | IC50 (sodium channel) [nM] | inhibition at 10 µM (CYP3A4) [%] | melting point [°C] | also measured
1 | COc1ccc2c(n1)C1(CO2)C(=O)N(C[C@H]2CCCO2)c2cccc(Br)c21 (stereo partly drawn) [Example 1, 4′-bromo-5-methoxy-1′-[(2R)-tetrahydrofuran-2-ylmethyl]spiro[furo[3,2-b]pyridine-3,3′-indol]-2′(1′H)-one] | 100 to 1000 | < 50 | 110 to 112 | –
2 | COc1ccc2c(n1)C1(CO2)C(=O)N(C[C@H]2CCCO2)c2ccccc21 (stereo partly drawn) [Example 2, 5-methoxy-1′-[(2R)-tetrahydrofuran-2-ylmethyl]spiro[furo[3,2-b]pyridine-3,3′-indol]-2′(1′H)-one] | – | – | 52 to 56 | –
3 | COc1ccc2c(n1)C1(CO2)C(=O)N(Cc2ccc3c(c2)OCCO3)c2ccccc21 (stereo not drawn) [Example 3, 1′-(2,3-dihydro-1,4-benzodioxin-6-ylmethyl)-5-methoxyspiro[furo[3,2-b]pyridine-3,3′-indol]-2′(1′H)-one] | 1 to 100 | – | 144 to 146 | –
4 | O=C1N(C[C@H]2CCCO2)c2ccccc2C12COc1c[nH]c(=O)cc12 (stereo partly drawn) [Example 4, 1′-[(2R)-tetrahydrofuran-2-ylmethyl]spiro[furo[2,3-c]pyridine-3,3′-indole]-2′,5(1′H,6H)-dione] | 1000 to 10000 | < 50 | > 250 | –
5 | O=C1Nc2ncccc2C12COc1cc3c(cc12)OCCO3 (stereo not drawn) [Example 6, 2,3-dihydrospiro[furo[2,3-g][1,4]benzodioxine-8,3′-pyrrolo[2,3-b]pyridin]-2′(1′H)-one] | 100 to 1000 | < 50 | > 250 | –
6 | O=C1N(Cc2ccccn2)c2ncccc2C12COc1cc3c(cc12)OCCO3 (stereo not drawn) [Example 7, 1′-(pyridin-2-ylmethyl)-2,3-dihydrospiro[furo[2,3-g][1,4]benzodioxine-8,3′-pyrrolo[2,3-b]pyridin]-2′(1′H)-one] | 1 to 100 | < 50 | – | –
7 | O=C1N(Cc2ncccc2C(F)(F)F)c2ncccc2C12COc1cc3c(cc12)OCCO3 (stereo not drawn) [Example 8, 1′-{[3-(trifluoromethyl)pyridin-2-yl]methyl}-2,3-dihydrospiro[furo[2,3-g][1,4]benzodioxine-8,3′-pyrrolo[2,3-b]pyridin]-2′(1′H)-one] | 100 to 1000 | < 50 | – | –
8 | O=C1Nc2cccnc2C12COc1cc3c(cc12)OCCO3 (stereo not drawn) [Example 10, 2,3-dihydrospiro[furo[2,3-g][1,4]benzodioxine-8,3′-pyrrolo[3,2-b]pyridin]-2′(1′H)-one] | 1000 to 10000 | < 50 | > 250 | –
9 | O=C1N(Cc2ccccn2)c2cccnc2C12COc1cc3c(cc12)OCCO3 (stereo not drawn) [Example 11, 1′-(pyridin-2-ylmethyl)-2,3-dihydrospiro[furo[2,3-g][1,4]benzodioxine-8,3′-pyrrolo[3,2-b]pyridin]-2′(1′H)-one] | 100 to 1000 | < 50 | 146 to 147 | –
10 | O=C1N(Cc2ncccc2C(F)(F)F)c2cccnc2C12COc1cc3c(cc12)OCCO3 (stereo not drawn) [Example 12, 1′-{[3-(trifluoromethyl)pyridin-2-yl]methyl}-2,3-dihydrospiro[furo[2,3-g][1,4]benzodioxine-8,3′-pyrrolo[3,2-b]pyridin]-2′(1′H)-one] | 100 to 1000 | < 50 | > 250 | –
11 | COc1ccc2c(n1)C1(CO2)C(=O)N(Cc2ncccc2C(F)(F)F)c2ccccc21 (stereo not drawn) [Example 13, 5-methoxy-1′-{[3-(trifluoromethyl)pyridin-2-yl]methyl}spiro[furo[3,2-b]pyridine-3,3′-indol]-2′(1′H)-one] | 100 to 1000 | < 50 | 195 to 198 | –
12 | CC(=O)N1CCN(c2ccc(OCC3COC(Cn4ccnc4)(c4ccc(Cl)cc4Cl)O3)cc2)CC1 (stereo not drawn) [Ketoconazole] | – | – | – | inhibition at 7.62 µM (CYP2C19): 65%
13 | C=C[C@H]1C[N@@]2CC[C@H]1C[C@@H]2[C@@H](O)c1ccnc2ccc(OC)cc12 [Quinidine] | – | – | – | inhibition at 0.0137 µM (CYP2D6): 55%
14 | Nc1ccc(S(=O)(=O)Nc2ccnn2-c2ccccc2)cc1 [Sulfaphenazole] | – | – | – | inhibition at 0.42 µM (CYP2C9): 50%
15 | NC1=N[C@H](O)[C@H]2[C@H]3O[C@]4(O)O[C@@H]([C@@H](O)[C@@]2(N1)[C@@H]4O)[C@]3(O)CO [TTX, tetrodotoxin] | – | – | – | block of the increase in [14C] guanidine influx (CHO-K1 (NaV1.4)): completely blocked using TTX.; block of the increase in [14C] guanidine influx (L6 (Nav1.4 and 1.5)): partially blocked by TTX at 100; block of the increase in [14C] guanidine influx [1]: background was partially blocked; block of the increase in [14C] guanidine influx (SK-N-BE2C (NaV1.8)): TTX partially blocked influx; block of the increase in [14C] guanidine influx (PC12 (Nav1.2)): guanidine influx was completely
